Assay results published in ChEMBL document CHEMBL4033705, “Screening for bioactive natural products from a 67-compound library of Glycyrrhiza inflata” (Bioorg Med Chem, 2017).
pIC50: −log10 of the molar value.

Columns and labels:
[1] = molecular target: T1, Tyrosine-protein phosphatase non-receptor type 1 (Homo sapiens) (UniProt P18031); test: Inhibition of recombinant human PTP1B using p-nitrophenyl phosphate as substrate at 10 uM after 30 mins relative to control
T1 sequence (whole entry): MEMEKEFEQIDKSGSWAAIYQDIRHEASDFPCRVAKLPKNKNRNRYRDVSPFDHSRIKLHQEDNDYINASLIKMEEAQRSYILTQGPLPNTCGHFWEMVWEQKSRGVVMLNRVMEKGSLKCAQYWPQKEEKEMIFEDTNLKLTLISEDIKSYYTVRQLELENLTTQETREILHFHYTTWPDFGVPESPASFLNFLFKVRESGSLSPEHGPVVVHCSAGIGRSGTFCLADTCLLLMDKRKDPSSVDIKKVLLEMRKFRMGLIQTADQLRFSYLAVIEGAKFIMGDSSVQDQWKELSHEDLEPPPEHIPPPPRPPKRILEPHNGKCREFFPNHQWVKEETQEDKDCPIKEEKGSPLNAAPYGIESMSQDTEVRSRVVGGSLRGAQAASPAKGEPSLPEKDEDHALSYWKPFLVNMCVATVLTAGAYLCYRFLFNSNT

[2] = species on record: Homo sapiens; test: Inhibition of LPS-induced NF-kappaB transcription (unknown origin) expressed in human SW480 cells at 10 uM by luciferase reporter gene assay; assay type: cell-based
[3] = test system: RAW264.7; test: Antiinflammatory activity in mouse RAW264.7 cells assessed as inhibition of LPS-induced NO production at 10 uM after 24 hrs by Griess reagent based assay relative to control; assay type: functional; settings: RAW264.7, 24 h
[4] = test system: MCF7; test: Growth inhibition of human MCF7 cells at 10 uM after 24 hrs by MTS assay relative to control; assay type: functional; settings: MCF7, 24 h, read-out: GI
[5] = molecular target: Mushroom tyrosinase (Agaricus bisporus) (UniProt O42713+Q00024+C7FF04+C7FF05); test: Inhibition of mushroom tyrosinase at 10 uM using L-tyrosine as substrate incubated for 15 mins followed by substrate addition relative to control
[6] = Inhibition of LPS-induced NF-kappaB transcription (unknown origin) expressed in human SW480 cells by luciferase reporter gene assay; assay type: cell-based
[7] = test system: SW480; test: Growth inhibition of human SW480 cells at 10 uM after 24 hrs by MTS assay relative to control; assay type: functional; settings: SW480, 24 h, read-out: GI
[8] = (§1) Growth inhibition of human LO2 cells at 10 uM after 24 hrs by MTS assay relative to control; assay type: cell-based, L02; settings: LO2 cells, read-out: GI
[9] = test system: HepG2; test: Growth inhibition of human HepG2 cells at 10 uM after 24 hrs by MTS assay relative to control; assay type: functional; settings: HepG2, 24 h, read-out: GI
[10] = (§2) Growth inhibition of human HEK293T cells at 10 uM after 24 hrs by MTS assay relative to control; assay type: cell-based, HEK-293T; settings: HEK293T cells, read-out: GI
[11] = test system: SW480; test: Cytotoxicity against human SW480 cells assessed as reduction in cell viability after 24 hrs by MTS assay; assay type: functional, cell-based; settings: SW480, 24 h
[12] = molecular target: T2, Tyrosine-protein phosphatase non-receptor type 1 (Homo sapiens, UniProt P18031); test: Inhibition of recombinant human PTP1B using p-nitrophenyl phosphate as substrate after 30 mins
T2 sequence (P18031 whole entry): T1 sequence (whole entry)

[13] = molecular target: Mushroom tyrosinase (Agaricus bisporus, UniProt O42713+Q00024+C7FF04+C7FF05); test: Inhibition of mushroom tyrosinase using L-tyrosine as substrate incubated for 15 mins followed by substrate addition
[14] = test system: HepG2; test: Cytotoxicity against human HepG2 cells assessed as reduction in cell viability after 24 hrs by MTS assay; assay type: functional, cell-based; settings: HepG2, 24 h
[15] = test system: MCF7; test: Cytotoxicity against human MCF7 cells assessed as reduction in cell viability after 24 hrs by MTS assay; assay type: functional, cell-based; settings: MCF7, 24 h
[16] = test system: L02; test: as §1; assay type: cell-based; settings: l02, 24 h, 10 µM
[17] = test system: HEK-293T; test: as §2; assay type: cell-based; settings: hek-293t, 24 h, 10 µM
[18] = test system: RAW264.7; test: Antiinflammatory activity in mouse RAW264.7 cells assessed as inhibition of LPS-induced NO production after 24 hrs by Griess reagent based assay; assay type: functional, cell-based; settings: RAW264.7, 24 h

SMILES	inhibition [1] [%]	inhibition [2] [%]	inhibition at 10 µM [3] [%]	inhibition of growth at 10 µM [4] [%]	inhibition [5] [%]	pIC50 [6]	inhibition of growth at 10 µM [7] [%]	inhibition at 24 h, 10 µM [8] [%]	inhibition of growth at 10 µM [9] [%]	inhibition at 24 h, 10 µM [10] [%]	pIC50 [11]	pIC50 [12]	IC50 [13] [µM]	pIC50 [14]	pIC50 [15]	Activity [16]	Activity [17]	pIC50 [18]
C=CC(C)(C)c1cc(/C=C/C(=O)c2ccc(O)cc2)c(OC)cc1O [LICOAGROCHACONE A]	18	56	39	10	1	4.86	7	16	14	4								
CC(C)=CCc1cc(-c2cc(=O)c3c(O)c(CC=C(C)C)c(O)cc3o2)ccc1O	94	0	5	25	12		86	33	34	3	5.20	6.26						
CC1(C)C=Cc2c(ccc3c2OC[C@@H](c2ccc(O)cc2O)C3)O1 [GLABRIDIN]	38	0	7	0	98		32	3	7	2			0.1					
CC(C)=CCc1c(O)cc2occ(-c3ccc4c(c3O)C=CC(C)(C)O4)c(=O)c2c1O	34	23	26	79	7		99	16	75	39	5.17			5.15	5.07			
CC(C)=CCc1c(O)ccc(-c2coc3c(CC=C(C)C)c(O)cc(O)c3c2=O)c1O	96	19	11	88	7		98	20	80	10	5.34	6.30		5.25	5.13	Non-Toxic	Non-Toxic	
CC1(C)C=Cc2c(ccc(-c3cc4ccc(O)cc4o3)c2O)O1	15	73	22	0	14	5.51	31	4	5	11								
CC(C)=CCc1cc(/C=C/C(=O)c2ccc(O)c(CC=C(C)C)c2O)ccc1O [KANZONOL C]	90	6	19	79	0		96	34	27	21	5.21	6.35			5.04			
CC1(C)C=Cc2c(O)ccc(-c3coc4cc(O)cc(O)c4c3=O)c2O1	36	12	21	28	90		15	24	22	1			0.8					
COc1c(/C=C/C(=O)c2ccc(O)c(O)c2)ccc(O)c1CC=C(C)C	75	80	85	21	11	5.61	21	9	5	28								5.03
